# Data from patent US9512138B2, “Compositions and methods for treating cancer” (The Regents of the University of California, priority 2012, dated 2016).
# Structures can show the parent of a compound that is named as a salt.
# What was measured:
# [1] = test system: NF-κB/p65 phosphorylation; assay: Western blot of phospho-NF-κB/p65 in H23 cells; type: cell-based, human; conditions: for phosphorylation of the p65 subunit of NF-κB: 10 μM, 60 min (FIG. 7)
# Procedure: FIG. 7. […] After 60 min Western blot were performed using anti-phospho-NF-κB/p65 antibody (Cell Signaling Technology #3031). Membranes were stripped and re-probed with antibody against total NF-κB/p65 (CST #3037).
# After 60 min, Western blots were done using anti-phospho-NFκB/p65 antibody (Cell Signaling).
# Upon confirming that parthenolide analogues can inhibit NSCLC cell proliferation, induce cell death and enhance the cytotoxicity of chemotherapy, we began to investigate potential cellular mechanisms that may underlie this process. For example, we used Western Blot methods to determine phosphorylation of the p65 subunit of NF-κB. H23 cells were incubated in the presence of vehicle control or 10 μM concentration of the parthenolide derivatives (JD 201, 202, 203, 204) for 60 min. After treatment, cells were collected and homogenized in lysis buffer. Extracts were electrophoresed on 4-20% gradient SDS-PAGE gels and transferred to nitrocellulose membranes. Blots were probed with anti-phospho-NF-κB/p65 and NF-κB/p65 for a loading control.
# [2] = test system: A549, H23, H2122 and H1975 NSCLC cells; assay: MTS cell viability/proliferation assay in NSCLC cell lines, 72 h; type: cell-based, human
# Procedure: FIG. 5. Parthenolide analogues JD201-JD210 suppress human lung tumor cell proliferation in vitro. A549, H23, H2122 and H1975 NSCLC cells were treated with increasing concentrations of drugs (0.1-100 μM). After 72 h cell viability was assessed by MTS assay. Viable cells are expressed as percentage of vehicle control. P<0.01 (**), versus control group, P<0.05 (*), versus control group. Natural occurring parthenolide (PTL), parthenolide analogues JD201 (DMAPT)-JD210. Parthenolide analogues inhibit female (H1975, H2122) and male (H23, A549) NSCLC cell proliferation.
# To determine the effect of parthenolide analogues in lung cancer cell proliferation we tested two male (A549, H23) and two female (H2122, H1975) lung cancer cell lines with increasing concentrations of parthenolide analogues (0.1, 1, 10 and 100 μM) for 72 hours.
# A549 NSCLC xenografts = A549 NSCLC xenografts in immunodeficient mice; type: in vivo
# [3] = test system: cancer stem cells (CSC) derived from NSCLC (H157); assay: Annexin-V apoptosis assay in lung cancer stem cells; type: cell-based, human; conditions: compared with bulk NSCLC cells, 3 independent experiments
# Procedure: FIG. 3. […] A comparison is performed using bulk NSCLC cells. Results based on annexin-V assays in 3 independent experiments.
# Analogues of parthenolide were prepared and purified (FIG. 8) and assessed for antitumor efficacy, to develop the best agents for clinical use. Responses of CSC-like subsets, bulk tumor cells and normal lung epithelial cells to parthenolide (PTL) analogues alone and with chemotherapy are ongoing, with assessments by TUNEL and Annexin-V assay for apoptosis (13) (FIG. 3) and cell proliferation (FIG. 4).
# [4] = test system: H157 NSCLC cells (bulk and CSC-subpopulations); assay: Proliferation of NSCLC bulk cells and CSC subpopulations; type: cell-based, human; conditions: bulk cell preparations and CSC-subpopulations; drug dose 20 micromolar; P<0.05 vs control
# From the text: FIG. 4. […] JD201 drug dose=20 micromolar.
# Lung cancer is the leading cause of cancer death in men and women worldwide. The poor prognosis of advanced non-small cell lung cancer (NSCLC) is due, in part, to emergence of tumor resistance to chemotherapy. […] If such minute subsets of CSC drive tumor formation and drug resistance, therapies targeting the bulk tumor mass but not CSC will fail. […] We identified CD133+/ALDH+ tumor stem/progenitor cells from human lung cancer cells in vitro using established Aldefluor assays in combination with labeled anti-CD133 antibodies. […] The antitumor effect of PTL may be due to its action as a potent inhibitor of nuclear factor-KB (NF-κB), which is markedly activated by chemotherapy. To target CSC and suppress tumor progression, we synthesized and tested novel analogs of PTL with improved antitumor properties and aqueous solubility. […] Dose-dependent increments of PTL analogs increase apoptosis of CSC when compared with bulk cells. […] Using Western blots, we find that PTL congeners inhibit phosphorylation of the p65 subunit of phospho-NF-κB and activation of IKKα/β. […]
# Analogues of parthenolide were prepared and purified (FIG. 8) and assessed for antitumor efficacy, to develop the best agents for clinical use. […]
# MCF-7/HER2 cells = assay: Proliferation of tamoxifen-resistant MCF-7/HER2 cells (cell counts); conditions: 0.1-50 micromolar, 72 hours, cell counts; P<0.001 vs controls
# Procedure: Assays for Tumor Cell Proliferation. […] Cell counts and viability tests (Trypan blue) will be done every 24 hr for 2-33 days. After 48-72 hr, proliferation was assessed by cell counts.
compound,measurement,setting,value
"C/C1=C\CC[C@@]2(C)O[C@H]2[C@H]2OC(=O)[C@@H](CN(C)C)[C@@H]2CC1 [JD201, (1aR,7aS,8R,10aS,Z)-8-((Dimethylamino)methyl)-1a,5-dimethyl-2,3,6,7,7a,8,10a,10b-octa-hydrooxireno[2′,3′:9,10]cyclodeca[1,2-b]furan-9(1aH)-one, fumaric acid salt, reference compound]",phosphorylation of the p65 subunit of NF-κB,[1]; listed as 201,inhibit phosphory-lation of NF-κB/p65
same,phosphorylation of the p65 subunit of NF-κB,[1]; listed as JD 201,reduced phosphorylation of the p65 subunit of NF-κB
same,phosphorylation of NF-κB/p65,"[1]; 10 µM, 60 min (FIG. 13)",inhibit phosphorylation of NF-κB/p65
same,growth inhibition at 10 μM,"[2]; 10 μM, A549, H23, H2122, H1975",Significant growth inhibition
same,growth inhibition at 100 μM,"[2]; 100 μM, A549, H23, H2122, H1975",Significant growth inhibition
same,inhibitory activity relative to other analogues,"[2]; FIG. 5, 0.1-100 μM",greater inhibitory activity than compounds 205 and 207
same,tumor progression,A549 NSCLC xenografts; oral gavage 100 mg/kg/day for 21 days vs vehicle control,reduction in tumor progression
same,tumor volumes,"A549 NSCLC xenografts; oral gavage 100 mg/kg/day for 21 days, vehicle controls 252±31 mm^3",55±5 mm^3
same,apoptosis of cancer stem cells (annexin-V),[3],dose-dependent increments in apoptosis
same,proliferation of NSCLC cells,[4],inhibits proliferation
same,proliferation of MCF-7/HER2 cells,MCF-7/HER2 cells,dose-dependent (0.1-50 micromolar) reduction in proliferation
